Source: PubChem BioAssay AID2765 (Broad Institute, 2010)
The source made the active and inactive calls.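 The calls were made as follows: active = half-maximal concentration for the rise in caspase light signal at or below ten times the top tested dose; inconclusive = flat fit between 30% and 70% activity, or unreliable curve fit; inactive = the rest.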

system: MEF A1-2A-BIM cells, caspase 3/7 luminescence, 3 h; experiment: inducers of caspase signal in A1-dependent MEFs – cell-based, luminescence, retest, A1 inhibitor project, dose response (AID 2765)

SMILES | EC50
COc1ccccc1C/C(N)=N/OC(=O)c1cccc([N+](=O)[O-])c1 | > 35 µM (inactive)
Cc1cc(C)n(S(=O)(=O)c2ccc(C)c(C)c2C)n1 | > 35 µM (inactive)
NS(=O)(=O)c1ccc(NC(=O)CN2CCc3ccccc32)cc1 | > 35 µM (inactive)
CCOC(=O)c1cccc(NC(=O)CN(c2ccc(C)cc2)S(=O)(=O)c2c(C)noc2C)c1 | > 35 µM (inactive)
O=C(CCC1N=C2c3ccccc3N=C(SCC(=O)NCC3CCCO3)N2C1=O)NCc1ccc(F)cc1 (stereo not drawn) | > 35 µM (inactive)
COCCCNC(=O)c1cccc(S(=O)(=O)N2CC3(C)CC2CC(C)(C)C3)c1 (stereo not drawn) | > 35 µM (inactive)
C=CCNC(=O)CSc1nc2sc3c(c2c(=O)n1CCC)CCC3 | > 35 µM (inactive)
O=[N+]([O-])c1ccccc1S(=O)(=O)N1CCN(S(=O)(=O)c2ccc3c(c2)OCCO3)CC1 | > 35 µM (inactive)
CCCN1C(=O)/C(=N\OCC(=O)NC23CC4CC(CC(C4)C2)C3)c2ccccc21 | > 35 µM (inactive)
Cc1ccc(S(=O)(=O)CC#CCOC(=O)c2ccc([N+](=O)[O-])cc2)cc1 | > 35 µM (inactive)
COC(=O)C1=C(C(=O)OC)[C@@H]2N(C)c3ccc(OC)cc3[C@@]23C[C@@H](C(=O)OC)N(C(=O)c2ccco2)C3=N1 | > 35 µM (inactive)
CN(C)CC#CCCCCCCC#CCN(C)C | > 35 µM (inactive)
COc1ccc(-c2ccc(NS(=O)(=O)c3cc([N+](=O)[O-])c(C)c([N+](=O)[O-])c3)cc2)nn1 | > 35 µM (inactive)
Cc1ccc(-c2noc(CSc3nnc(CCc4ccccc4)n3-c3ccccc3)n2)cc1 | > 35 µM (inactive)
C=CCNC(=O)c1ccccc1NC(=O)COc1ccccc1 | > 35 µM (inactive)
Cn1cnc([N+](=O)[O-])c1S(=O)(=O)c1cccc(Cl)c1 | > 35 µM (inactive)
CCN(CC)CCCNC(=S)N1CCC(c2nc3ccccc3[nH]2)CC1 | > 35 µM (inactive)
CC(C)Oc1ccccc1C(=O)NC(CO)C(=O)O (stereo not drawn) | > 35 µM (inactive)
O=C(O)Cc1ccc(NC(=O)C(c2ccccc2)c2ccccc2)cc1 | > 35 µM (inactive)
COc1cc(C(=O)Nc2cc(-c3ccccc3)[nH]n2)cc(OC)c1OC | > 35 µM (inactive)
Cc1coc(NC(=O)CSc2nc(-c3ccc(Cl)cc3)cc(C(F)(F)F)c2C#N)n1 | > 35 µM (inactive)
Cc1cc(=O)[nH]c(SCC(=O)Nc2ccc(Br)cc2)c1C#N | > 35 µM (inactive)
CCOc1ccc(CNC2CCCCCCC2)cc1OC | > 35 µM (inactive)
C=CCn1c(SCC(=O)NC23CC4CC(CC(C4)C2)C3)nc(O)cc1=O | > 35 µM (inactive)

SMILES | EC50
CCCCn1c(=O)[nH]c(=O)c2c1nc(Cn1ncc(Cl)c(Cl)c1=O)n2CCC | > 35 µM (inactive)
CCCCOC(=O)c1ccc(S(N)(=O)=O)o1 | > 35 µM (inactive)
COc1cccc(C(=O)C(C#N)=C(SC)SC)c1 | > 35 µM (inactive)
O=C(CCCCCn1c(=S)[nH]c2ccsc2c1=O)NC1CCCCC1 | > 35 µM (inactive)
COc1ccc(NC(=O)/C(Cl)=C(/Cl)S(=O)Cc2ccc(C)cc2)cn1 (stereo not drawn) | > 35 µM (inactive)
O=C(NC[C@H]1CCCO1)c1cccc2c1C(=O)c1ccc(-c3ccc(F)cc3OCc3ccccc3)cc1S2(=O)=O | > 35 µM (inactive)
CCOc1cc(/C=N/N=C(\N)c2nonc2N)cc(Br)c1OCc1cccc2ccccc12 | 28 µM
Cc1ccc(C#N)c(SCC(=O)Nc2nccs2)n1 | > 35 µM (inactive)
C#CCOCCOCCOCCNc1nc(N2CCN(C(=O)[C@H](CCCCN)n3cc(CCCC)nn3)CC2)nc(N2CCN(C(=O)[C@H](CCCCN)n3cc(CCC(=O)O)nn3)CC2)n1 | > 35 µM (inactive)
COC(=O)C(CO)Nc1ncnc2onc(-c3ccc(F)cc3)c12 (stereo not drawn) | > 35 µM (inactive)
NCCCC[C@H](N[C@@H](CCc1ccccc1)C(=O)O)C(=O)N1CCC[C@H]1C(=O)O | > 35 µM (inactive)
CSc1ccc(C(c2c(C)[nH][nH]c2=O)c2c(C)[nH][nH]c2=O)cc1 | > 35 µM (inactive)
O=Cc1cccc(OC(=O)c2ccc(Cl)cc2Cl)c1 | > 35 µM (inactive)
COc1ccc(-c2cc3ccccc3oc2=O)cc1NC(=S)NC(=O)c1ccc2c(c1)OCCO2 | 6.8 µM
O=[N+]([O-])c1ccc(CP(=O)(c2ccccc2)c2ccccc2)cc1 | > 35 µM (inactive)
CCC1(C(=O)c2ccc(Cl)cc2)C2c3ccccc3OC(=O)C21C(=O)Nc1ccccc1 (stereo not drawn) | > 35 µM (inactive)
CCOC(=O)CSCC(=O)N1N=C(c2cccs2)CC1c1ccc(F)cc1 (stereo not drawn) | > 35 µM (inactive)
O=C(NCCc1ccc(Cl)cc1)C1CCCN(S(=O)(=O)N2CCCCCC2)C1 (stereo not drawn) | > 35 µM (inactive)
N#Cc1ccc(S(=O)(=O)N2CCC(N3CCCCC3)CC2)cc1 | > 35 µM (inactive)
Cc1nc(NC(=O)CN2CCN(c3cccc(Cl)c3)CC2)sc1C(=O)N(C)C | > 35 µM (inactive)
CCS(=O)(=O)c1ncc(Cl)c(C(=O)Nc2ccc(S(=O)(=O)N3CCC(C)CC3)cc2)n1 | > 35 µM (inactive)
O=C(/C=C/c1ccc(O)cc1)c1ccc(O)cc1O | > 35 µM (inactive)
O=C(c1cc(-c2ccccn2)nc2ccc(Cl)cc12)N1CCN(CCc2ccccc2)CC1 | > 35 µM (inactive)
CCOC(=O)CCC(=O)Nc1ccc(S(=O)(=O)N2CCC(C)CC2)cc1 | > 35 µM (inactive)

SMILES | EC50
Cc1csc(NC(=O)c2cccc(S(=O)(=O)N3CCN(C)CC3)c2)n1 | > 35 µM (inactive)
O=C(NCCN1CCOCC1)c1cc(Cl)ccc1Cl | > 35 µM (inactive)
COC(=O)C(Cc1ccccc1)OS(N)(=O)=O (stereo not drawn) | > 35 µM (inactive)
CN(C)c1ccc(S(=O)(=O)N(C)C)cc1[N+](=O)[O-] | > 35 µM (inactive)
CC(=O)c1ccc(S(=O)(=O)N2CCCCC2C(=O)O)cc1 (stereo not drawn) | > 35 µM (inactive)
COc1ccc(NC(=O)/C=C/C(=O)O)c([N+](=O)[O-])c1 | > 35 µM (inactive)
CCCCCCCCC(=O)NNC(=O)c1c(O)c2ccccc2n(CCC)c1=O | > 35 µM (inactive)
Cc1cc(C)cc(N(CC(=O)Nc2cccc(C)c2C)S(=O)(=O)c2c(C)[nH]c(=O)[nH]c2=O)c1 | > 35 µM (inactive)
Cc1cc(C(=O)Nc2cccc3c2O[C@@H](CN(C)S(=O)(=O)c2ccccc2)[C@H](C)CN([C@@H](C)CO)C3=O)n(C)n1 | > 35 µM (inactive)
CC(=O)c1ccc(NC(=O)CO/N=C(\C)c2cccs2)cc1 | > 35 µM (inactive)
CCNC(=O)CN(c1ccc(Br)c(C)c1)S(C)(=O)=O | > 35 µM (inactive)
COCCNC(=O)C(c1ccco1)N(C(=O)Cn1nnc2ccccc21)c1ccc(C)cc1C (stereo not drawn) | > 35 µM (inactive)
O=C(c1cccc(F)c1F)N1CCCC1 | > 35 µM (inactive)
CS(=O)(=O)c1nc(-c2ccco2)cc(C(F)(F)F)n1 | > 35 µM (inactive)
O=C(Nc1ccccc1N1CCCCC1)c1ccc(Cl)cc1 | > 35 µM (inactive)
O=C(Nc1cc(Cl)ccc1N1CCOCC1)c1cccnc1 | > 35 µM (inactive)
CCCCn1c(N2CCCC2)nc2c1c(=O)[nH]c(=O)n2C | > 35 µM (inactive)
CCN(CC(=O)NCc1ccc(Cl)cc1)S(=O)(=O)c1ccc(F)cc1 | > 35 µM (inactive)
CC(=O)OCCCNc1cc(Sc2nc3ccccc3s2)c2nonc2c1[N+](=O)[O-] | > 35 µM (inactive)
O=C(NCc1ccco1)/C(=C/c1ccc([N+](=O)[O-])cc1)NC(=O)c1ccco1 | > 35 µM (inactive)
Oc1cc2c(cc1CN1CCN(c3ncccn3)CC1)OCO2 | > 35 µM (inactive)
O=C(CNc1cccc(S(=O)(=O)N2CCCC2)c1)Nc1cccc(C(F)(F)F)c1 | > 35 µM (inactive)
C[C@]12CC[C@H](O)C[C@H]1CC[C@@H]1[C@@H]2CC[C@]2(C)[C@@H](C3=CC(=O)OC3)CC[C@]12O | > 35 µM (inactive)
Cc1cc(C)n(-c2ccc(NC(=O)C3CCN(Cc4ccc(C)o4)CC3)cc2)n1 | > 35 µM (inactive)

SMILES | EC50
COc1cc2sc(-c3ccc(S(C)(=O)=O)cc3)c(C(=O)NCCCCO)c2cc1OC | > 35 µM (inactive)
CCSc1ccc(-c2nn(-c3ccccc3)cc2/C=C(/C#N)C(=O)NC)cc1 | > 35 µM (inactive)
Cn1c(O)c(C=NCCN2CCN(C(=O)Nc3ccccc3)CC2)c(=O)n(C)c1=O | > 35 µM (inactive)
Cc1ccc(NC(=O)CCN2CC(C)OC(C)C2)cc1C (stereo not drawn) | > 35 µM (inactive)
CCN(CC)c1ncnc2c1cnn2Cc1ccc(Cl)cc1 | > 35 µM (inactive)
Cn1nc(-c2ccc(OCC(=O)NCC3CCCO3)cc2)c2ccccc2c1=O (stereo not drawn) | > 35 µM (inactive)
COc1cc(NC(=O)c2cccs2)ccc1NC(=O)c1cc2ccccc2o1 | > 35 µM (inactive)
Cc1ccc(C(=O)N/C(=C\c2sccc2C)C(=O)NCCCN2CCOCC2)cc1 | > 35 µM (inactive)
CCOC(=O)c1c(C)nc2sc(C(=O)Nc3ccc(C(C)=O)cc3)c(N)c2c1-c1ccc(OC)cc1 | > 35 µM (inactive)
CC(C)CN(C(=O)C1CSC2(C)CCC(=O)N12)c1c(N)n(Cc2ccccc2)c(=O)[nH]c1=O (stereo not drawn) | > 35 µM (inactive)
COc1cc2c(c(OC)c1OC)-c1ccc(O)c(=O)cc1C(NC(C)=O)CC2 (stereo not drawn) | > 35 µM (inactive)
Cc1cccc(-n2c(Cc3ccccc3)n[nH]c2=S)c1 | > 35 µM (inactive)
Cc1onc(-c2c(Cl)cccc2Cl)c1C(=O)N=S(C)(=O)c1ccccc1 (stereo not drawn) | > 35 µM (inactive)
O=C(CN1CCN(Cc2ccccc2)CC1)Nc1ccc(Br)cc1 | > 35 µM (inactive)
COc1ccc(CNCc2ccc([N+](=O)[O-])cc2)cc1OC | > 35 µM (inactive)
Cc1ccc(N(Cc2cc(=O)[nH]c3ccccc23)C(=O)CCl)cc1 | > 35 µM (inactive)
COc1cc2c(cc1OC)C(C)N(C(=O)c1cc3c(s1)-c1ccccc1OC3)CC2 (stereo not drawn) | > 35 µM (inactive)
CCOc1ccc(Nc2cc(C)nc3nc(C)nn23)cc1 | > 35 µM (inactive)
COc1ccc(C(=O)NCc2nnc(SCC(=O)NCc3ccco3)o2)cc1OC | > 35 µM (inactive)
Cc1cc(C)cc(N=Cc2c(O)c3ccccc3oc2=O)c1 | > 35 µM (inactive)
O=C(Cc1ccccc1)N1CCc2[nH]nc(-c3ccccc3)c2C1 | > 35 µM (inactive)
